From PubChem BioAssay AID1963967 (Molecular Pharmacology Branch, DTP, NCI, 2024)

System: 855422-203-R-J1-PDC spheroids with HUVEC/MSC, viability
Assay: Anticancer human tumor 855422-203-R-J1-PDC patient-derived bladder carcinoma cell line growth inhibition [PI3K]
Settings: for IC50: curve of first compound; for viability, T/C: stronger effect = lower value
Description: Combinatorial screen of targeted agents with the PI3K inhibitors inavolisib, alpelisib, duvelisib, and copanlisib in multi-cell type tumor spheroids
A high-throughput screen of multi-cell type tumor spheroids was designed to identify active combinations of targeted small molecules and PI3K pathway inhibitors. Complex spheroids include a stromal component modeled by human endothelial cells (HUVEC) and fibroblasts modeled by human mesenchymal stem cells (MSCs). The concentration ranges selected for each drug and investigational agent were based upon clinically achievable concentrations if the clinical Cmax of the agent was known.
Compounds. The drugs and investigational agents: inavolisib (NSC800729), alpelisib (NSC765974), duvelisib (NSC772469), copanlisib (NSC816437), ipatasertib (NSC767898), afuresertib (NSC778305), talazoparib (NSC767125), sapanisertib (NSC764658), selumetinib (NSC741078), tovorafenib (DAY101, NSC766906), vemurafenib (NSC761431), ravoxertinib (NSC781343), sotorasib (NSC818433), MRTX1133 (NSC 836407), abemaciclib (NSC 768073), palbociclib (NSC758247), venetoclax (NSC 766270), SY5609 (NSC837396), enzalutamide (NSC755605), and darolutamide (NSC825331), were obtained from the National Cancer Institute (NCI) Developmental Therapeutics Program Chemical Repository. The FDA-approved anticancer drug set is available from the NCI Developmental Therapeutics Program. […] The stock solutions were prepared in dimethyl sulfoxide (DMSO, Sigma-Aldrich, St. Louis, MO, cat. D2650) at 800-fold the tested concentration and stored at -70 degrees C prior to their use. All drugs and investigational agents were tested over a range starting from a high concentration at or near the clinical Cmax and decreasing in half-log increments. If the clinical Cmax for an agent had not been determined, the highest concentration tested was 10 microM.
Cell Culture. All cells were maintained in an incubator at 37 degrees C and 5% CO2 with 95% humidity. The PDC lines were cultured according to standard operating procedures established by the NCI PDMR (https://pdmr.cancer.gov/sops/default.htm). All PDCs were thawed and cultured in Matrigel-coated flasks prepared with a working solution of 1X Ham's F-12 nutrient mix, without supplementation (Invitrogen, Waltham, MA, cat. 11765054), 100 U/mL penicillin-streptomycin (Invitrogen, cat. 15140122), and 2.5% Matrigel (Corning Inc., Corning, NY, cat. 354248) for the first three passages. The 354836-022-R-J1-PDC, 475296-252-R-J1-PDC, and 997726-040-R-J2-PDC lines were cultured in 6A media, which includes advanced DMEM/F-12 (Thermo Fisher Scientific, cat. 12634028), 10 mM HEPES (Thermo Fisher Scientific, cat. 15630080), 1X GlutaMAX supplement (Thermo Fisher Scientific, cat. 35050061), 0.1 mg/mL primocin (InvivoGen, San Diego, CA, cat. ant-pm-2), 10% defined fetal bovine serum, heat inactivated (HyClone Laboratories Inc., Logan, UT, cat. SH30070.03HI), 50% L-WRN conditioned media (ATCC, cat. CRL-3276), 1.25 mM N-Acetyl-L-cysteine (Sigma-Aldrich, cat. A9165), 10 mM nicotinamide (Sigma-Aldrich, cat. N0636), 1X B-27 supplement (Thermo Fisher Scientific, cat. 17504044), 1X N-2 supplement (Thermo Fisher Scientific, cat. 17502048), and 10 microM Y-27632 dihydrochloride (Tocris Bioscience, Bristol, United Kingdom, cat. 1254). The 624824-186-R-J2-PDC line was cultured in 6C/Colon 1B media, which includes all 6A media components plus 50 ng/mL human EGF recombinant protein (Thermo Fisher Scientific, cat. PHG0311). […]

[1] = second compound 0.0316 µM, first compound 0.0316 µM
[2] = second compound 0.0316 µM, first compound 0.1 µM
[3] = second compound 0.0316 µM, first compound 0.316 µM
[4] = second compound 0.0316 µM, first compound 1 µM
[5] = second compound 0.0316 µM, first compound 3.16 µM
[6] = second compound 0.0316 µM, first compound 10 µM
[7] = second compound 0.1 µM, first compound 0.0316 µM
[8] = second compound 0.1 µM, first compound 0.1 µM
[9] = second compound 0.1 µM, first compound 0.316 µM
[10] = second compound 0.1 µM, first compound 1 µM
[11] = second compound 0.1 µM, first compound 3.16 µM
[12] = second compound 0.1 µM, first compound 10 µM
[13] = second compound 0.316 µM, first compound 0.0316 µM
[14] = second compound 0.316 µM, first compound 0.1 µM
[15] = second compound 0.316 µM, first compound 0.316 µM
[16] = second compound 0.316 µM, first compound 1 µM
[17] = second compound 0.316 µM, first compound 3.16 µM
[18] = second compound 0.316 µM, first compound 10 µM
[19] = second compound 1 µM, first compound 0.0316 µM
[20] = second compound 1 µM, first compound 0.1 µM
[21] = second compound 1 µM, first compound 0.316 µM
[22] = second compound 1 µM, first compound 1 µM
[23] = second compound 1 µM, first compound 3.16 µM
[24] = second compound 1 µM, first compound 10 µM
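Note: agents incubated with spheroids for one week before read-out.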
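Throughout, for viability, T/C: 100% = DMSO vehicle-treated control wells.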

## Cn1ncc(Cl)c1-c1cc(C(=O)NC(CN)Cc2cccc(F)c2)sc1Cl (centres undefined) + CC(Nc1ccc2c(c1)OCCn1cc(N3C(=O)OCC3C(F)F)nc1-2)C(N)=O
Second compound 0.00316 µM
  IC50: 614 nM
Second compound 0.01 µM
  IC50: 707 nM
Second compound 0.0316 µM
  IC50: 561 nM
Second compound 0.1 µM
  IC50: 257 nM
Second compound 0.316 µM
  IC50: 35.2 nM
Second compound 1 µM
  IC50: < 31.6 nM
Second compound 0.00316 µM, first compound 0.0316 µM
  viability, T/C: 88%
Second compound 0.00316 µM, first compound 0.1 µM
  viability, T/C: 65.1%
Second compound 0.00316 µM, first compound 0.316 µM
  viability, T/C: 60.5%
Second compound 0.00316 µM, first compound 1 µM
  viability, T/C: 43.6%
Second compound 0.00316 µM, first compound 3.16 µM
  viability, T/C: 31.9%
Second compound 0.00316 µM, first compound 10 µM
  viability, T/C: 6.62%
Second compound 0.01 µM, first compound 0.0316 µM
  viability, T/C: 89.3%
Second compound 0.01 µM, first compound 0.1 µM
  viability, T/C: 72.4%
Second compound 0.01 µM, first compound 0.316 µM
  viability, T/C: 64.7%
Second compound 0.01 µM, first compound 1 µM
  viability, T/C: 44.9%
Second compound 0.01 µM, first compound 3.16 µM
  viability, T/C: 25.7%
Second compound 0.01 µM, first compound 10 µM
  viability, T/C: 8.23%
[1]
  viability, T/C: 75.7%
[2]
  viability, T/C: 62.9%
[3]
  viability, T/C: 56.5%
[4]
  viability, T/C: 47.7%
[5]
  viability, T/C: 22.9%
[6]
  viability, T/C: 5.89%
[7]
  viability, T/C: 64.5%
[8]
  viability, T/C: 61.6%
[9]
  viability, T/C: 40.3%
[10]
  viability, T/C: 42.9%
[11]
  viability, T/C: 19.8%
[12]
  viability, T/C: 3.42%
[13]
  viability, T/C: 50.2%
[14]
  viability, T/C: 50.2%
[15]
  viability, T/C: 34.2%
[16]
  viability, T/C: 39.2%
[17]
  viability, T/C: 16.1%
[18]
  viability, T/C: 1.76%
[19]
  viability, T/C: 38.1%
[20]
  viability, T/C: 29%
[21]
  viability, T/C: 32.4%
[22]
  viability, T/C: 24.4%
[23]
  viability, T/C: 12.2%
[24]
  viability, T/C: 1.17%

## CC(Cn1ccc(-c2ccc(C#N)c(Cl)c2)n1)NC(=O)c1cc(C(C)O)[nH]n1 (centres undefined) + Cc1nc(NC(=O)N2CCCC2C(N)=O)sc1-c1ccnc(C(C)(C)C(F)(F)F)c1
Second compound 0.0316 µM
  IC50: > 10000 nM
Second compound 0.1 µM
  IC50: > 10000 nM
Second compound 0.316 µM
  IC50: > 10000 nM
Second compound 1 µM
  IC50: > 10000 nM
Second compound 3.16 µM
  IC50: < 31.6 nM
Second compound 10 µM
  IC50: < 31.6 nM
[1]
  viability, T/C: 110%
[2]
  viability, T/C: 87.1%
[3]
  viability, T/C: 114%
[4]
  viability, T/C: 102%
[5]
  viability, T/C: 102%
[6]
  viability, T/C: 87.5%
[7]
  viability, T/C: 104%
[8]
  viability, T/C: 94.6%
[9]
  viability, T/C: 105%
[10]
  viability, T/C: 91.6%
[11]
  viability, T/C: 98.5%
[12]
  viability, T/C: 89.2%
[13]
  viability, T/C: 91.2%
[14]
  viability, T/C: 88.2%
[15]
  viability, T/C: 94.4%
[16]
  viability, T/C: 89.6%
[17]
  viability, T/C: 98.1%
[18]
  viability, T/C: 86.7%
[19]
  viability, T/C: 71.7%
[20]
  viability, T/C: 76.7%
[21]
  viability, T/C: 73.9%
[22]
  viability, T/C: 77.8%
[23]
  viability, T/C: 81.3%
[24]
  viability, T/C: 62.3%
Second compound 3.16 µM, first compound 0.0316 µM
  viability, T/C: 44.9%
Second compound 3.16 µM, first compound 0.1 µM
  viability, T/C: 45%
Second compound 3.16 µM, first compound 0.316 µM
  viability, T/C: 48.5%
Second compound 3.16 µM, first compound 1 µM
  viability, T/C: 46.5%
Second compound 3.16 µM, first compound 3.16 µM
  viability, T/C: 49.9%
Second compound 3.16 µM, first compound 10 µM
  viability, T/C: 37%
Second compound 10 µM, first compound 0.0316 µM
  viability, T/C: 24.4%
Second compound 10 µM, first compound 0.1 µM
  viability, T/C: 22.5%
Second compound 10 µM, first compound 0.316 µM
  viability, T/C: 22%
Second compound 10 µM, first compound 1 µM
  viability, T/C: 26.9%
Second compound 10 µM, first compound 3.16 µM
  viability, T/C: 28%
Second compound 10 µM, first compound 10 µM
  viability, T/C: 17.4%
